31 molecules from patent publication US10947237B2, “Antimicrobial compounds and methods of making and using the same” (BIOVERSYS AG, priority 2015, dated 2021) can be followed below.

The test system of test [1] is Staphylococcus aureus (S. aureus) 11540 strain. Briefly: standard microdilution assay, minimum inhibitory concentration (MIC). Type of test: cell-based. Conditions: Table 2, 11540 strain. How it is done:
(§1) The in vitro activity of the compounds of the present disclosure can be determined. Antimicrobial testing is typically performed to determine the minimum inhibitory concentration (MIC). Minimum inhibitory concentrations (MICs) are determined by the microdilution method in a final volume of 100 μl according to protocols outlined by The Clinical and Laboratory Standards Institute (CLSI). Performance standards for reference strains are assessed within the same experimental design to maintain quality control. See, for example, Clinical Laboratory Standards Institute: Methods for dilution antimicrobial susceptibility tests for bacteria that grow aerobically M7-A8. Approved Standard-Eighth Edition. Wayne, Pa.: CLSI; December 2008; and Clinical Laboratory Standards Institute: Performance Standards for Antimicrobial Susceptibility Testing M100-S20; Approved Standard-Twentieth Edition. Wayne, Pa.: CLSI; June 2010. The compounds of the present disclosure were tested for antimicrobial activity. The Compounds 1-149 were run against Eschericia coli (E. Coli) strain ATCC25922 and against Staphylococcus aureus (S. aureus) 11540 strain using a standard microdilution assay to determine minimum inhibitory concentrations (MICs). […] It will be recognized by one skilled in the art that the compounds can be assessed against other bacterial organisms and that the presentation of data for activity against Eschericia coli and Staphylococcus aureus are illustrative and in no way is intended to limit the scope of the present disclosure. The compounds of the present disclosure can be assayed against a range of other microorganisms depending upon the performance activity desired to be gathered. Furthermore, the “+” and “−” representation and the selection of a cutoff value of 16 micrograms/mL is also illustrative and in no way is intended to limit the scope of the present disclosure.

Test [2] relates to Eschericia coli (E. Coli) strain ATCC25922. Described as above. In kind it is cell-based. Conditions: Escherichia coli; Table 2; strain ATCC25922. The method, then: as §1

Take `CC(=N)NCC[C@H]1CCC[C@H](c2ccc(-n3cc4cc(-c5cc(CCC[C@H](C)N)cc(Cl)c5F)[nH]c4nc3=O)cc2)N1` [Compound 1]: the MIC in test [1] and in test [2] was at most 16 µg/mL each time.
Take `CC1=NCC[C@H]2CCC[C@H](c3ccc(-n4cc5cc(-c6cc(CCC[C@H](C)N)cc(Cl)c6F)[nH]c5nc4=O)cc3)N12` [Compound 2]: the MIC in test [1] and in test [2] was at most 16 µg/mL throughout.
Regarding `C[C@H](N)CCCc1cc(Cl)c(F)c(-c2cc3cn(-c4ccc([C@H]5CCC[C@H](CCNC(=N)c6ccccn6)N5)cc4)c(=O)nc3[nH]2)c1` [Compound 3], the minimum inhibitory concentration (MIC) in test [1] and in test [2] was at most 16 µg/mL throughout.
Take `C[C@H](N)CCCc1cc(Cl)c(F)c(-c2cc3cn(-c4ccc(CN[C@H](CCNC(=N)N)CNC(=N)N)cc4)c(=O)nc3[nH]2)c1` [Compound 4]: the MIC in test [1] and in test [2] was at most 16 µg/mL in each case.
With `C[C@H](N)CCCc1cc(Cl)c(F)c(-c2cc3cn(-c4ccc([C@@H]5CCC[C@@H](CNCc6cn[nH]c6)N5)cc4)c(=O)nc3[nH]2)c1` [Compound 5], the MIC in test [1] and in test [2] was at most 16 µg/mL throughout.
Turning to `C[C@H](N)CCCc1cc(Cl)c(F)c(-c2cc3cn(-c4ccc([C@@H]5CCC[C@@H](CNCc6cccnn6)N5)cc4)c(=O)nc3[nH]2)c1` [Compound 6], the MIC in test [1] and in test [2] was at most 16 µg/mL in each case.
As for `C[C@H](N)CCCc1cc(Cl)c(F)c(-c2cc3cn(-c4ccc(CN[C@H](CCNC(=N)N)Cn5ccc(=O)[nH]c5=O)cc4)c(=O)nc3[nH]2)c1` [Compound 7], the MIC in test [1] and in test [2] was at most 16 µg/mL in each case.
Turning to `Cc1cn(CC[C@@H]2CCC[C@@H](c3ccc(-n4cc5cc(-c6cc(CCC[C@H](C)N)cc(Cl)c6F)[nH]c5nc4=O)cc3)N2)c(=O)o1` [Compound 8], the minimal inhibitory concentration (MIC) in test [1] and in test [2] was at most 16 µg/mL in each case.
Take `CC(=O)CNCC[C@@H]1CCC[C@@H](c2ccc(-n3cc4cc(-c5cc(CCC[C@H](C)N)cc(Cl)c5F)[nH]c4nc3=O)cc2)N1` [Compound 9]: the MIC in test [1] and in test [2] was at most 16 µg/mL each time.
For `C[C@H](N)CCCc1cc(Cl)c(F)c(-c2cc3cn(-c4ccc([C@@H]5CCC[C@@H](Cc6cnc(N)o6)N5)cc4)c(=O)nc3[nH]2)c1` [Compound 10], the MIC in test [1] and in test [2] was above 16 µg/mL each time.
`Cc1nc[nH]c1CNC[C@@H]1CCC[C@@H](c2ccc(-n3cc4cc(-c5cc(CCC[C@H](C)N)cc(Cl)c5F)[nH]c4nc3=O)cc2)N1` [Compound 11]: the MIC in test [1] and in test [2] was at most 16 µg/mL each time.
Take `C[C@H](N)CCCc1cc(Cl)c(F)c(-c2cc3cn(-c4ccc([C@@H]5CCC[C@@H](CCNc6ncccn6)N5)cc4)c(=O)nc3[nH]2)c1` [Compound 12]: the MIC in test [1] and in test [2] was above 16 µg/mL each time.
As to `C[C@H](N)CCCc1cc(Cl)c(F)c(-c2cc3cn(-c4ccc(CN[C@@H](CCO)CCNC(=N)N)cc4)c(=O)nc3[nH]2)c1` [Compound 13], the MIC in test [1] and in test [2] was at most 16 µg/mL in each case.
As for `Cc1ccnc(NC[C@@H](CCNC(=N)N)NCc2ccc(-n3cc4cc(-c5cc(CCC[C@H](C)N)cc(Cl)c5F)[nH]c4nc3=O)cc2)c1` [Compound 14], the MIC in test [1] and in test [2] was at most 16 µg/mL in each case.
As for `C[C@H](N)CCCc1cc(Cl)c(F)c(-c2cc3cn(-c4ccc(CN[C@H](CCNC(=N)N)CS(N)(=O)=O)cc4)c(=O)nc3[nH]2)c1` [Compound 15], the MIC in test [1] and in test [2] was at most 16 µg/mL throughout.
As to `C[C@H](N)CCCc1cc(Cl)c(F)c(-c2cc3cn(-c4ccc([C@@H]5CCC[C@@H](CNCc6cc[nH]c(=O)c6)N5)cc4)c(=O)nc3[nH]2)c1` [Compound 16], the MIC in test [1] and in test [2] was at most 16 µg/mL in each case.
In the case of `C[C@H](N)CCCc1cc(Cl)c(F)c(-c2cc3cn(-c4ccc([C@@H]5CCC[C@@H](CCn6ccoc6=O)N5)cc4)c(=O)nc3[nH]2)c1` [Compound 17], the minimum inhibitory concentration (MIC) in test [1] and in test [2] was at most 16 µg/mL each time.
Take `C[C@H](N)CCCc1cc(Cl)c(F)c(-c2cc3cn(-c4ccc([C@@H]5CCC[C@@H](CNCc6c[nH]nn6)N5)cc4)c(=O)nc3[nH]2)c1` [Compound 18]: the MIC in test [1] and in test [2] was above 16 µg/mL each time.
For the molecule `C[C@H](N)CCCc1cc(Cl)c(F)c(-c2cc3cn(-c4ccc([C@@H]5CCC[C@@H](CCN6CCOC6=O)N5)cc4)c(=O)nc3[nH]2)c1` [Compound 20], the MIC in test [1] and in test [2] was above 16 µg/mL in each case.
Take `C[C@H](N)CCCc1cc(Cl)c(F)c(-c2cc3cn(-c4ccc(CN[C@H](CCNC(=N)N)CNc5ccccn5)cc4)c(=O)nc3[nH]2)c1` [Compound 21]: the MIC in test [1] and in test [2] was at most 16 µg/mL in each case.
Take `C[C@H](N)CCCc1cc(Cl)c(F)c(-c2cc3cn(-c4ccc([C@@H]5CCC[C@@H](C[C@@H](O)c6ccn[nH]6)N5)cc4)c(=O)nc3[nH]2)c1` [Compound 22]: the MIC in test [1] and in test [2] was at most 16 µg/mL throughout.
As to `C[C@H](N)CCCc1cc(Cl)c(F)c(-c2cc3cn(-c4ccc([C@@H]5CCC[C@@H](C[C@H](O)c6ccn[nH]6)N5)cc4)c(=O)nc3[nH]2)c1` [Compound 23], the MIC is at most 16 µg/mL in test [1] and above 16 µg/mL in test [2].
With `C[C@H](N)CCCc1cc(Cl)c(F)c(-c2cc3cn(-c4ccc(CN[C@H](CCNC(=N)N)CCc5cnc(N)s5)cc4)c(=O)nc3[nH]2)c1` [Compound 24], the MIC in test [1] and in test [2] was at most 16 µg/mL in each case.
For `COc1ccc(CNc2ncc(CC[C@@H](CCNC(=N)N)NCc3ccc(-n4cc5cc(-c6cc(CCC[C@H](C)N)cc(Cl)c6F)[nH]c5nc4=O)cc3)s2)cc1` [Compound 25], the MIC in test [1] and in test [2] was at most 16 µg/mL throughout.
As for `C[C@H](N)CCCc1cc(Cl)c(F)c(-c2cc3cn(-c4ccc([C@H]5CCC[C@H](CCNc6ncccn6)N5)cc4)c(=O)nc3[nH]2)c1` [Compound 26], the MIC was at most 16 µg/mL in test [1] and above 16 µg/mL in test [2].
Consider `C[C@H](N)CCCc1cc(Cl)c(F)c(-c2cc3cn(-c4ccc([C@@H]5CCC[C@@H](CCNC6=NCCC6)N5)cc4)c(=O)nc3[nH]2)c1` [Compound 27], for which the MIC in test [1] and in test [2] was at most 16 µg/mL in each case.
Consider `C[C@H](N)CCCc1cc(Cl)c(F)c(-c2cc3cn(-c4ccc([C@@H]5CCC[C@@H](CCNC(=N)CCCCl)N5)cc4)c(=O)nc3[nH]2)c1` [Compound 28], for which the MIC in test [1] and in test [2] was at most 16 µg/mL each time.
For `C[C@H](N)CCCc1cc(Cl)c(F)c(-c2cc3cn(-c4ccc([C@H]5CCC[C@H](CCNC6=NCCC6)N5)cc4)c(=O)nc3[nH]2)c1` [Compound 29], the MIC in test [1] and in test [2] was at most 16 µg/mL in each case.
Turning to `CCNC[C@@H](CCNC(=N)N)NCc1ccc(-n2cc3cc(-c4cc(CCC[C@H](C)N)cc(Cl)c4F)[nH]c3nc2=O)cc1` [Compound 30], the MIC in test [1] and in test [2] was at most 16 µg/mL in each case.
For `C[C@H](N)CCCc1cc(Cl)c(F)c(-c2cc3cn(-c4ccc([C@H]5N[C@H](CCNC(=N)N)CCO5)cc4)c(=O)nc3[nH]2)c1` [Compound 31], the minimum inhibitory concentration (MIC) in test [1] and in test [2] was at most 16 µg/mL throughout.
Consider `C[C@H](N)CCCc1cc(Cl)c(F)c(-c2cc3cn(-c4ccc([C@@H]5N[C@@H](CCNC(=N)N)CCO5)cc4)c(=O)nc3[nH]2)c1` [Compound 32], for which the MIC in test [1] and in test [2] was at most 16 µg/mL in each case.
